# Source: patent US20230072421A1, “TARGETED RADIOPHARMACEUTICALS FOR THE DIAGNOSIS AND TREATMENT OF PROSTATE CANCER” (Bayer AS, priority 2019, published 2023)
# How the values were obtained:
# [1] = Biodistribution study in LNCaP tumor-bearing mice (Th227 counted in organs); type: in vivo, SCID mice; settings: 1500 kBq/kg
# Description: (§1) SCID mice were randomly assigned to experimental groups, ten animals per group (efficacy) or n=3-5 per time point of biodistribution study. At the initiation of the study, a testosterone pellet was subcutaneously transplanted, the animals were shaved, tattooed and each cage was labeled with the cage number, study number and number of animals per cage.
# (§2) LNCaP human prostate cancer cells were cultured as described according to the supplier's protocols. Cells were harvested for transplantation in a subconfluent (70%) state. Animals were injected with 5×10^6 LNCaP cells suspended in 100% Matrigel subcutaneously into the flank of the mice.
# Biodistribution study: When tumors reached a predetermined size in mice of ˜50 mm^2 animals were randomized into groups (n=3 animals/time point) and the radioactive compound was once applied intravenously. The i.v. application volume was 100 μl/mice.
# At the predetermined time point, n=3 animals were sacrificed, the organs removed, weight and measured in a Germanium detector to count the Th227 in the sample.
# [2] = system: LNCaP human prostate cancer cells; assay: LNCaP xenograft efficacy study (T/C tumor area); type: in vivo, SCID mice
# Description: as §1, §2
# Efficacy study: When tumors reached a predetermined size in mice of 35-50 mm^2 animals were randomized into treatment and control groups (n=10 animals/group) and treatment with the defined radioactive dose was started. The i.v. application volume was 100 μl/mice.
# Tumor response was assessed by determination of the tumor area (product of the longest diameter and its perpendicular) using a caliper. The animal body weight was monitored as a measure for treatment-related toxicity. Measurement of tumor area and body weight was performed two to three times weekly.
# Animals were sacrificed when showing signs of toxicity (>20% body weight loss) or when tumors reached a size of approximately 200 mm^2.
# Tumor growth inhibition is presented as T/C ratio (Treatment/Control) calculated with tumor areas when the vehicle control group had to be closed.
# 22Rv1 cells = assay: Cell proliferation assay (CellTiter-Glo, 5-day exposure), 22Rv1; type: cell-based; settings: 22Rv1, 1000 cells/well, Th-227 labelled at 375 kBq/nmol, mean of 1 to 6 experiments
# Description: (§3) Inhibition of cell proliferation of Thorium-227 labeled PMSA SMOL ligands was tested different prostate cancer cell lines, namely 22Rv1, VCaP, C4-2 (all from ATCC, Manassas, Va., USA) and LNCaP (DMSZ, Braunschweig). Cells were seeded using the following conditions in 384 well plates (Corning) in 30 μl of growth media at 4000 cells/well for VCaP cells and 1000 cells/well for 22Rv1, C4-2 and LNCaP cells.
# (§4) Cells were cultivated an incubator at 37° C. and 5% C02 over night. […] In sister plates cell viability at treatment start (d=0) was determined using CellTiter-Glo® assay (CTG, Promega, Madison, Wis., USA), by adding 30 μl per well CTG solution, incubation for 10 min and reading of Luminescence in a PheraStarFSX instrument (BMG Labtech). After a 5-day exposure in the presenced of test compounds, cell viability of treated or untreated control cells was determined again using CellTiter-Glo® assay (Promega, Madison, Wis., USA). […] The DRC software is a Biobook Spreadsheet that was developed by Bayer AG and Bayer Business Services on the IDBS E-Workbook Suite platform (IDBS: ID Business Solutions Ltd., Guildford, UK).
# VCaP cells = assay: Cell proliferation assay (CellTiter-Glo, 5-day exposure), VCaP; type: cell-based; settings: 4000 cells/well, Th-227 labelled at 375 kBq/nmol, mean of 1 to 6 experiments
# Description: as §3, §4
# C4-2 cells = assay: Cell proliferation assay (CellTiter-Glo, 5-day exposure), C4-2; type: cell-based; settings: C4-2, 1000 cells/well, Th-227 labelled at 375 kBq/nmol, mean of 1 to 6 experiments
# Description: as §3, §4
smiles,measurement,setting,value
"O=C([O-])CN1CCN(CC(=O)[O-])CCN(CC(=O)NCc2ccc(C(=O)N[C@@H](Cc3ccc4ccccc4n3)C(=O)NCCCC[C@H](NC(=O)N[C@@H](CCC(=O)O)C(=O)O)C(=O)O)nc2)CCN(CC(=O)[O-])CC1.[227Th+4] [Example 34-B-227Th, {N^6-[3-(quinolin-2-yl)-N-{5-[(2-{4,7,10-tris[(carboxy-kappaO)methyl]-1,4,7,10-tetraazacyclododecan-1-yl-kappa^4N^1,N^4,N^7,N^10}acetamido)methyl]pyridine-2-carbonyl}-L-alanyl]-N^2-{[(1S)-1,3-dicarboxypropyl]carbamoyl}-L-lysinato(4−)}(^227Th)Thorate(1−)]",Th-227 in Blood,[1]; 0.25 h,1.78% ID Th-227/g organ
same,Th-227 in Liver,[1]; 0.25 h,1.69% ID Th-227/g organ
same,Th-227 in Spleen,[1]; 0.25 h,17.32% ID Th-227/g organ
same,Th-227 in Tumor,[1]; 0.25 h,6.33% ID Th-227/g organ
same,Th-227 in bone,[1]; 0.25 h,1.66% ID Th-227/g organ
same,Th-227 in brain,[1]; 0.25 h,0.12% ID Th-227/g organ
same,Th-227 in kidney,[1]; 0.25 h,62.53% ID Th-227/g organ
same,Th-227 in large intestine,[1]; 0.25 h,0.67% ID Th-227/g organ
same,Th-227 in lung,[1]; 0.25 h,4.04% ID Th-227/g organ
same,Th-227 in muscle,[1]; 0.25 h,1.02% ID Th-227/g organ
same,Th-227 in prostate,[1]; 0.25 h,0.00% ID Th-227/g organ
same,Th-227 in salivary glands,[1]; 0.25 h,3.14% ID Th-227/g organ
same,Th-227 in small intestine,[1]; 0.25 h,1.36% ID Th-227/g organ
same,Accumulation in the tumor (in words),[1],good and stable accumulation in the tumor
same,Th-227 in Blood,[1]; 1 hr,0.58% ID Th-227/g organ
same,Th-227 in Liver,[1]; 1 hr,0.88% ID Th-227/g organ
same,Th-227 in Spleen,[1]; 1 hr,19.69% ID Th-227/g organ
same,Th-227 in Tumor,[1]; 1 hr,9.15% ID Th-227/g organ
same,Th-227 in bone,[1]; 1 hr,1.27% ID Th-227/g organ
same,Th-227 in brain,[1]; 1 hr,0.02% ID Th-227/g organ
same,Th-227 in kidney,[1]; 1 hr,69.22% ID Th-227/g organ
same,Th-227 in large intestine,[1]; 1 hr,0.45% ID Th-227/g organ
same,Th-227 in lung,[1]; 1 hr,2.79% ID Th-227/g organ
same,Th-227 in muscle,[1]; 1 hr,0.54% ID Th-227/g organ
same,Th-227 in prostate,[1]; 1 hr,0.62% ID Th-227/g organ
same,Th-227 in salivary glands,[1]; 1 hr,1.75% ID Th-227/g organ
same,Th-227 in small intestine,[1]; 1 hr,0.64% ID Th-227/g organ
same,Th-227 in Blood,[1]; 4 hr,0.07% ID Th-227/g organ
same,Th-227 in Liver,[1]; 4 hr,0.55% ID Th-227/g organ
same,Th-227 in Spleen,[1]; 4 hr,11.57% ID Th-227/g organ
same,Th-227 in Tumor,[1]; 4 hr,7.00% ID Th-227/g organ
same,Th-227 in bone,[1]; 4 hr,1.44% ID Th-227/g organ
same,Th-227 in brain,[1]; 4 hr,0.00% ID Th-227/g organ
same,Th-227 in kidney,[1]; 4 hr,65.52% ID Th-227/g organ
same,Th-227 in large intestine,[1]; 4 hr,0.79% ID Th-227/g organ
same,Th-227 in lung,[1]; 4 hr,1.48% ID Th-227/g organ
same,Th-227 in muscle,[1]; 4 hr,0.41% ID Th-227/g organ
same,Th-227 in prostate,[1]; 4 hr,4.08% ID Th-227/g organ
same,Th-227 in salivary glands,[1]; 4 hr,1.05% ID Th-227/g organ
same,Th-227 in small intestine,[1]; 4 hr,1.13% ID Th-227/g organ
same,Th-227 in Blood,[1]; 24 h,0.01% ID Th-227/g organ
same,Th-227 in Liver,[1]; 24 h,0.23% ID Th-227/g organ
same,Th-227 in Spleen,[1]; 24 h,1.21% ID Th-227/g organ
same,Th-227 in Tumor,[1]; 24 h,10.56% ID Th-227/g organ
same,Th-227 in bone,[1]; 24 h,1.21% ID Th-227/g organ
same,Th-227 in brain,[1]; 24 h,0.00% ID Th-227/g organ
same,Th-227 in kidney,[1]; 24 h,21.02% ID Th-227/g organ
same,Th-227 in large intestine,[1]; 24 h,0.10% ID Th-227/g organ
same,Th-227 in lung,[1]; 24 h,0.27% ID Th-227/g organ
same,Th-227 in muscle,[1]; 24 h,0.00% ID Th-227/g organ
same,Th-227 in prostate,[1]; 24 h,0.00% ID Th-227/g organ
same,Th-227 in salivary glands,[1]; 24 h,0.11% ID Th-227/g organ
same,Th-227 in small intestine,[1]; 24 h,0.08% ID Th-227/g organ
same,Th-227 in Blood,[1]; 96 h,0.00% ID Th-227/g organ
same,Th-227 in Liver,[1]; 96 h,0.19% ID Th-227/g organ
same,Th-227 in Spleen,[1]; 96 h,0.43% ID Th-227/g organ
same,Th-227 in Tumor,[1]; 96 h,9.97% ID Th-227/g organ
same,Th-227 in bone,[1]; 96 h,1.08% ID Th-227/g organ
same,Th-227 in brain,[1]; 96 h,0.00% ID Th-227/g organ
same,Th-227 in kidney,[1]; 96 h,9.71% ID Th-227/g organ
same,Th-227 in large intestine,[1]; 96 h,1.44% ID Th-227/g organ
same,Th-227 in lung,[1]; 96 h,0.13% ID Th-227/g organ
same,Th-227 in muscle,[1]; 96 h,0.00% ID Th-227/g organ
same,Th-227 in prostate,[1]; 96 h,0.00% ID Th-227/g organ
same,Th-227 in salivary glands,[1]; 96 h,0.10% ID Th-227/g organ
same,Th-227 in small intestine,[1]; 96 h,0.25% ID Th-227/g organ
same,T/Carea,"[2]; Example III, day 64 after start of therapy, single treatment 1.5 MBq/kg",0.23
same,T/Carea,"[2]; Example IV, day 36 after start of therapy, once 1 MBq/kg",0.66
same,Proliferation assay on cancer cell lines by TTCs Default Pivot #3 IC50 [kBq/mL] 22Rv1 1000cells 375kBq/nmol (mean),22Rv1 cells,0.76 kBq/mL
same,Proliferation assay on cancer cell lines by TTCs Default Pivot #3 IC50 [kBq/mL] VCap 4000cells 375kBq/nmol (mean),VCaP cells,1.75 kBq/mL
same,Proliferation assay on cancer cell lines by TTCs Default Pivot #3 IC50 [kBq/mL] C4-2 1000cells 375kBq/nmol (mean),C4-2 cells,0.63 kBq/mL
